Source: patent US20050048093A1, “Methods and reagents for the control of infestations of parasites” (priority 2001, published 2005)
Several values for one entry are separate records, joined by “and”; a condition that tells them apart may be missing. Equal entries are not always repeated.

Tests used:
Format in all cases: in vivo
[1] = test system: Varroa destructor; assay: Inhibition of the reproduction of V. destructor in artificial (gelatine) cells; conditions: for Inhibitory activity in respect of varroa reproduction / Number of offspring per varroa female in the artificial cells treated (Mean) / Number of offspring per varroa female in the artificial cells treated: Example 5; for Inhibitory activity in respect of varroa reproduction: artificial cells, result in words; for Number of offspring per varroa female in the artificial cells treated (Mean) / Number of offspring per varroa female in the artificial cells treated: same procedure as Example 1; for Number of offspring per varroa female in the artificial cells treated (Mean): mean of three replications; for Number of offspring per varroa female in the artificial cells treated: single replications 1-3
Protocol: In Example 1, a chemical composition is made up of a solution of heptadecene in hexane, with a double bond in position 8 and cis configuration ([…]). The cis-8-heptadecene in a solution of hexane causes a reduction in reproduction, ie a reduction in the number of offspring produced by the Varroa destructor mite, raised in a laboratory environment, on bee larvae in gelatine cells. For verification of the activity of cis-8-C17H34, two groups of gelatine cells were prepared, with a diameter of 6.5 mm. In each of the two cells of the first group, 10 […] 100 ng of cis-8-heptadecene was deposited. This group was defined as the treated group. In the cells of the second group, 10 […] active compound was deposited. This group was defined as the control group. The substances were deposited into each cell using a micropipette. The solvent was left to evaporate and then one varroa and one bee larva from natural, just-capped cells were introduced into each cell in each of the groups. The varroa was thus cultivated on the bee larva, during the metamorphosis of the larva, as happens in nature. Cultivation took place at 35° C. and 75% relative humidity. After ten days Oust before the bee reached its adult state), the cells were opened and inspected by microscope and the offspring produced by each varroa female were counted. The experiment described above was conducted four times; in total, approximately 80 cells were used per group. Following the same procedure used in Example 1, a chemical composition made up of a solution of a heptadecene isomer as in Example 1, in this case the isomer with a double bond in position 6 (cis-6-C17H34), and a second composition containing a solution of cis-8-heptadecene (cis-8-C17H34) were applied.

[2] = test system: Varroa destructor; assay: Inhibition of the reproduction of V. destructor in natural cells; conditions: Example 2, 10 days in hive
Protocol: Example 2 was conducted in the same way as Example 1, except for the fact that the V. destructor mite was cultivated on bee larvae in natural cells from a beehive. In this example, too, the effect of 8-heptadecene on the reduction in the mean number of offspring produced by a female V. destructor in cells of natural honeycomb, kept in the hive, was verified.
For verification of the activity of cis-8-C17H34, two groups of natural cells were prepared. In the cells of the first group, referred to as the treated group, 1 μl of acetone containing 100 ng of cis-8-heptadecene was deposited. In the cells of the second group, the control group, 1 μl of the solvent alone, ie acetone, was deposited. The natural cells were cells just capped with honeycomb taken from infested hives and the product was deposited via injection of the solution using a microsyringe through the cell cap. Following treatment, the honeycomb was returned to the hive from which it was taken. After ten days, the honeycombs used for the experiment were brought to the laboratory; both the treated and control cells were opened and inspected. In the infested cells, the mean number of offspring produced by each varroa was counted. The experiment was replicated six times: in total, approximately 140 infested cells were examined for each group.

[3] = test system: Varroa destructor; assay: Inhibition of the reproduction of V. destructor via dispensing of cis-8-heptadecene in bee colonies; conditions: for Number of offspring of V. destructor inside the capped cells of Group B (10 μg) / Number of offspring of V. destructor inside the capped cells of Group A (100 μg): changed weekly
Protocol: In Example 3, ten nuclei were prepared, ie bee colonies with a reduced number of individuals, in the order of several thousand. Each nucleus was placed in a hive with dimensions smaller than those of a standard hive. These nuclei were divided into three groups—A and B, each with three nuclei, and C, with four nuclei.
Into each hive, a dispensing mechanism comprising a nylon grid, with a 100 μm mesh, square and with a side measurement of 10 cm, supported by a sheet of aluminium, was introduced. Solutions of cis-8-heptadecene in various concentrations in 100 μl of hexane were placed on each of these grids. The solvent was left to evaporate before each test. Group A was treated with 100 μg of cis-8-C17H34 in 100 μl of hexane, Group B with 10 μg of cis-8-C17H34 in […], and Group C with 100 μl of hexane without the addition of cis-8-C17H34 (control grou). The dispensing mchanism was changed in each hive each week; and treatment lasted for three weeks. At the end of the test, the number of V. destructor individuals present on the adult bees and in the brood cells was determined. The brood cells were removed from the hives, opened and inspected. Finally, the V. destructor individuals killed by the treatment were counted. The numbers of offspring of the V. destructor individuals present in the brood cells were calculated, separately for each developmental stage of the bees, and specifically pink-eyed pupae (pp), black-eyed pupae (pd) and pigmented pupae and adult bees (ppd).

Row | SMILES | Inhibitory activity in respect of varroa reproduction [1] | Number of offspring per varroa female in the artificial cells treated (Mean) [1] | Number of offspring per varroa female in the artificial cells treated ([1]; listed as cis-6-C17H34) | Number of offspring per varroa female in the artificial cells treated with cis-8-heptadecene (Mean) ([1]; Example 1, 100 ng per gelatine cell, 10 days, mean of four replications) | Number of offspring per varroa female in the artificial cells treated ([1]; listed as cis-8-C17H34) | Number of offspring per varroa female in the natural cells treated with cis-8-heptadecene ([2]; 100 ng in 1 μl acetone per natural capped cell, single replications 1-6) | Number of offspring per varroa female in the natural cells treated with cis-8-heptadecene (Mean) ([2]; 100 ng per natural capped cell, mean of six replications) | Number of offspring of V. destructor inside the capped cells of Group B (10 μg) ([3]; 10 μg per dispenser, three weeks, PD: black-eyed pupae) | Number of offspring of V. destructor inside the capped cells of Group B (10 μg) ([3]; 10 μg per dispenser, three weeks, PDD [sic]: pigmented pupae et adults) | Number of offspring of V. destructor inside the capped cells of Group B (10 μg) ([3]; 10 μg per dispenser, three weeks, PP: pink-eyed pupae) | Percentage distribution of V. destructor in Group B (10 μg): Varroa in the reproductive phase ([3]; 10 μg per dispenser, three weeks, adult female varroa in brood cells) | Percentage distribution of V. destructor in Group B (10 μg): Varroa in the phoretic phase ([3]; 10 μg per dispenser, three weeks, adult female varroa on adult bees) | Number of offspring of V. destructor inside the capped cells of Group A (100 μg) ([3]; 100 μg per dispenser, three weeks, PD: black-eyed pupae) | Number of offspring of V. destructor inside the capped cells of Group A (100 μg) ([3]; 100 μg per dispenser, three weeks, PDD [sic]: pigmented pupae et adults) | Number of offspring of V. destructor inside the capped cells of Group A (100 μg) ([3]; 100 μg per dispenser, three weeks, PP: pink-eyed pupae) | Percentage distribution of V. destructor in Group A (100 μg): Varroa in the reproductive phase ([3]; 100 μg per dispenser, three weeks, adult female varroa in brood cells) | Percentage distribution of V. destructor in Group A (100 μg): Varroa in the phoretic phase ([3]; 100 μg per dispenser, three weeks, adult female varroa on adult bees) | Reproduction of V. destructor in the cells of the hives ([3]; Groups A (100 μg) and B (10 μg), as from the black-eyed pupa stage (pd), result in words)
1 | CCCCC/C=C\CCCCCCCCCC [cis-6-heptadecene] | demonstrated inhibitory activity | 2.1 | 2.4 and 2.3 and 1.7 | – | – | – | – | – | – | – | – | – | – | – | – | – | – | –
2 | CCCCCCC/C=C\CCCCCCCC [cis-8-heptadecene] | demonstrated inhibitory activity | 1.9 | – | 1.7 | 2.0 and 1.5 | 3.2 and 2.5 and 3.6 and 3.1 and 3.7 | 3.2 | 2.65 | 3.20 | 2 | 60 Percentage | 40 Percentage | 2.63 | 3.29 | 2 | 50 Percentage | 50 Percentage | reduction, albeit modest
